Key:
[1] = Jurkat reporter gene cellular assay; assay type: cell-based; details: Homo sapiens; Jurkat/NF-κB-luc/PD1 + Raji-PD-L1 coculture, OKT3 1 μg/mL, 6 hrs, activation fold; read-out: Cell Activity EC50
Procedure: The effect of compounds of the examples of the present invention and positive compounds on the interaction between PD-1 and PD-L1 expressed on cell surfaces, and the related influence on T cell functions, were determined by a Jurkat reporter gene cellular assay.
Briefly, the reporter gene plasmid of NF-κB-luc and the plasmid of human PD-1 were transfected into Jurkat cells to establish a stably transfected cell line capable of stably expressing both PD-1 and NF-κB-Luc reporter genes; the expression level of PD-1 on the cell surface was confirmed by flow cytometry; and the expression of the reporter gene was confirmed via the response of the reporter gene stimulated by OKT-3 and Raiji cells.
In addition, the plasmid of human PD-L1 was transfected into Raji cells to obtain a cell line capable of stably expressing PD-L1. Jurkat/NF-κB-luc/PD1 cells and Raji-PD-L1 cells were then cocultured and stimulated with OKT-3. On this basis, the compounds were added, and the enhancement of the signal pathway of T cell activation by the inhibitory effect of the compounds on the interaction between PD-1 and PD-L1 was evaluated by readings of reporter gene responses. The specific experimental process was as follows: • 1) 30 μL of compound or antibody solution was added to each well of a white 96-well plate (coming, 3610) at different diluted concentrations, and 10 μL of OKT3 (Biolegend, 317326) was then added (the final concentration of OKT3: 1 μg/mL); • 2) 20 μL of Raji-PD-L1 cell suspension was added to each well with 5*10^4 cells for each well, and was incubated in an incubator for 20 min: • 3) 20 μL of Jurkat/NF-κb-luc/PD-1 cell suspension was added to each well with 5*10^4 cells for each well, and well mixed, and 6 hrs later, Bright-glo (Promega, E2620) was applied and plates were read on Envision; • 4) The reading of each well treated with the compound was compared with the reading of each well treated with DMSO to obtain the activation fold of the compound; • 5) EC50 values of compounds and positive compounds of the examples of the present invention were determined by non-linear regression analysis of activation folds at different compound concentrations.

[2] = target: interaction between PD-1 and PD-L1 (Homo sapiens (Human), UniProt Q9NZQ7); experiment: PD1-PDL1 HTRF binding activity test; details: Cisbio PD-1/PD-L1 binding assay kit
Procedure: I. PD1-PDL1 HTRF Binding Activity Test
The effect of compounds of the examples of the present invention on the interaction between PD-1 and PD-L1 was determined by the PD-1/PD-L1 binding assay kit from Cisbio (#64ICP01PEG or 64ICP01PEH). The detailed experimental process was as follows: • 1) Pre-diluted compound solution, 4 μL of Tag1-PD-L1 and 4 μL of Tag2-PD1 were added to each well of a 384-well plate: • 2) After the mixture was incubated at room temperature for 15 min, 5 μL of anti-Tag1-Eu3+ antibody and 5 μL of anti-Tag2-XL665 antibody were then added; • 3) After incubated for 2 hrs at room temperature or overnight at 4° C., plates were read on Envision of Pelkin Elmer; and readings at 665 nm and 620 nm were recorded, and the ratio of the two readings was taken as a reading for each well; • 4) The reading of each well after compound treatment was compared with the reading of DMSO treated wells to obtain the percent inhibition of the compound; • 5) IC50 values of compounds and positive compounds of the examples of the present invention were determined by non-linear regression analysis of percent inhibition at different compound concentrations. II. Jurkat Reporter Gene Cellular Assay

[3] = Pharmacokinetic assay in mice; assay type: in vivo; details: male, mouse; ICR mice, PO 10 mg/kg, plasma
Procedure: III. Pharmacokinetic Assay in Mice
The purpose of this study was to study the pharmacokinetic behaviors of some compounds of the present invention, and administration routes were: per oral administration (PO) to ICR mice at a dose of 10 mg/kg.
The compounds used in this test came from the compounds of the specific examples of the present invention.
ICR mice, male, N=3, with the original source of Shanghai Sippr-BK Laboratory Animal Co. Ltd.
2.3 Preparation and Administration of Drug
The compounds were weighed, and dissolved in a solvent of 0.5% SDS+0.5% CMCNa. The mixture solutions were mixed well by shaking and ultrasonic treatment to obtain colorless clear solutions. The solutions were orally administered to nine mice after an overnight fast. The dosage of administration was 10 mg/kg.
• 1) With about 90 μL/time point, blood was drawn from the submaxillary vein, and heparin sodium was added for anticoagulation. The blood samples were placed onto the ice, and were centrifuged (centrifugation conditions: 8000 r/min, 6 min, 2-8° C.) within 1 hr to obtain plasmas. • 2) The time points for blood sampling were at 0 hr, 0.25 hr, 0.5 hr, 1 hr, 2 hrs, 4 hrs, 6 hrs, 8 hrs and 24 hrs after administration. The samples were stored in a refrigerator at −20° C. • 3) 40 μL of plasma sample was added to 160 μL of cold acetonitrile containing an internal standard, and the mixture solution was vortexed for 3 min and centrifuged at 11,000 r/min for 5 min. • 4) 100 μL of supernate was taken and added to 100 μL of water, and 5 μL of the sample was taken and analyzed by LC/MS/MS.
The compounds from some representative examples of the present invention were administered and tested according to the above method, and their prototype compounds were detected.

Sequence of interaction between PD-1 and PD-L1 (Q9NZQ7 19-238): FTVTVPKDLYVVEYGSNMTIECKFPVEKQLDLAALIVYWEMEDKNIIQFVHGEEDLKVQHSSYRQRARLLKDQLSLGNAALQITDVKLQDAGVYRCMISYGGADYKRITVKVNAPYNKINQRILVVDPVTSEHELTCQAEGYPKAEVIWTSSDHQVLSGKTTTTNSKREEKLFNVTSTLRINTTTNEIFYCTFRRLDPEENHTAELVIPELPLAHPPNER

With `CC(C)N1CCc2cc(/C(F)=C/c3cccc(-c4cccc(NC(=O)c5nc6c(n5C)CCN(CCC57CCC(C(=O)O)(CC5)C7)C6)c4Cl)c3Cl)ncc2C1` [Example 25, (Z)-4-(2-(2-((2,2′-dichloro-3′-(2-fluoro-2-(7-isopropyl-5,6,7,8-tetrahydro-2,7-naphthyridin-3-yl)vinyl)-[1,1′-biphenyl]-3-yl)carbamoyl)-1-methyl-1,4,6,7-tetrahydro-5H-imidazo[4,5-c]pyridin-5-yl)ethyl) bicyclo[2.2.1]heptane-1-carboxylic acid] the EC50 [1] was 86.3 nM and the IC50 [2] was 0.358 nM.
With `Cn1c(C(=O)Nc2cccc(-c3cccc(NC(=O)c4cc5c(cn4)CN(C4COC4)CC5)c3Cl)c2Cl)nc2c1CCN(CCC13CCC(C(=O)O)(CC1)C3)C2` [Example 11, 4-(2-(2-((2,2′-dichloro-3′-(7-(oxetan-3-yl)-5,6,7,8-tetrahydro-2,7-naphthyridine-3-carboxamido)-[1,1′-biphenyl]-3-yl)carbamoyl)-1-methyl-1,4,6,7-tetrahydro-5H-imidazo[4,5-c]pyridin-5-yl)ethyl)bicyclo [2.2.1]heptane-1-carboxylic acid] the EC50 [1] was 54.4 nM and the IC50 [2] was 0.109 nM.
Compound `CC(C)N1CCc2cc(C(=O)Nc3cccc(-c4cccc(NC(=O)c5cc(C6CC6)c(CN6CCCC[C@H]6C(=O)O)cn5)c4Cl)c3Cl)ncc2C1` [Example 32, (S)-1-((4-cyclopropyl-6-((2,2′-dichloro-3′-(7-isopropyl-5,6,7,8-tetrahydro-2,7-naphthyridine-3-carboxamido)-[1,1′-biphenyl]-3-yl)carbamoyl)pyridin-3-yl)methyl)piperidine-2-carboxylic acid] has an EC50 [1] of 25 nM, an AUC(0-t) [3] of 10200 ng·h/mL and a Cmax [3] of 2570 ng/mL. It also gave an MRT [3] of 2.9 h, a Tmax [3] of 0.5 h and a half-life [3] of 1.3 h.
Compound `CC(C)N1CCc2cc(C(=O)Nc3cccc(-c4cccc(NC(=O)c5ccc6c(n5)CCN(CCC57CCC(C(=O)O)(CC5)C7)C6)c4Cl)c3Cl)ncc2C1` [Example 69, 4-(2-(2-((2,2′-dichloro-3′-(7-isopropyl-5,6,7,8-tetrahydro-2,7-naphthyridine-3-carboxamido)-[1,1′-biphenyl]-3-yl)carbamoyl)-7,8-dihydro-1,6-naphthyridin-6(5H)-yl)ethyl)bicyclo[2.2.1]heptane-1-carboxylic acid] has an EC50 [1] of 381 nM.
For `Cn1c(C(=O)Nc2cccc(-c3cccc(NC(=O)c4cc5c(cn4)CN(CC4(O)CC4)CC5)c3Cl)c2Cl)nc2c1CCN(CCC13CCC(C(=O)O)(CC1)C3)C2` [Example 62, 4-(2-(2-((2,2′-dichloro-3′-(7-((1-hydroxycyclopropyl)methyl)-5,6,7,8-tetrahydro-2,7-naphthyridine-3-carboxamido)-[1,1′-biphenyl]-3-yl)carbamoyl)-1-methyl-1,4,6,7-tetrahydro-5H-imidazo[4,5-c]pyridin-5-yl)ethyl)bicyclo[2.2.1]heptane-1-carboxylic acid], the EC50 [1] was 76.3 nM.
Compound `Cn1c(C(=O)Nc2cccc(-c3cccc(NC(=O)c4cc5c(cn4)CN([C@H]4CC[C@H](O)CC4)CC5)c3Cl)c2Cl)nc2c1CCN(CCC13CCC(C(=O)O)(CC1)C3)C2` [Example 63, 4-(2-(2-((2,2′-dichloro-3′-(7-((1R,4R)-4-hydroxycyclohexyl)-5,6,7,8-tetrahydro-2,7-naphthyridine-3-carboxamido)-[1,1′-biphenyl]-3-yl)carbamoyl)-1-methyl-1,4,6,7-tetrahydro-5H-imidazo[4,5-c]pyridin-5-yl)ethyl)bicyclo[2.2.1]heptane-1-carboxylic acid] has an EC50 [1] of 104 nM.
For `Cn1c(C(=O)Nc2cccc(-c3cccc(NC(=O)c4cc5c(cn4)CN(CCCO)CC5)c3Cl)c2Cl)nc2c1CCN(CCC13CCC(C(=O)O)(CC1)C3)C2` [Example 9, 4-(2-(2-((2,2′-dichloro-3′-(7-(3-hydroxypropyl)-5,6,7,8-tetrahydro-2,7-naphthyridine-3-carboxamido)-[1,1′-biphenyl]-3-yl)carbamoyl)-1-methyl-1,4,6,7-tetrahydro-5H-imidazo[4,5-c]pyridin-5-yl)ethyl) bicyclo[2.2.1]heptane-1-carboxylic acid], the EC50 [1] was 177 nM.
`CC(C)N1CCc2cc(C(=O)Nc3cccc(-c4cccc(NC(=O)c5nc6c(n5C)CCN(CC[C@H]5CC[C@H](C(=O)O)CC5)C6)c4Cl)c3Cl)ncc2C1` [Example 23, (1R,4R)-4-(2-(2-((2,2′-dichloro-3′-(7-isopropyl-5,6,7,8-tetrahydro-2,7-naphthyridine-3-carboxamido)-[1,1′-biphenyl]-3-yl)carbamoyl)-1-methyl-1,4,6,7-tetrahydro-5H-imidazo[4,5-c]pyridin-5-yl)ethyl) cyclohexane-1-carboxylic acid] gave an EC50 [1] of 60.7 nM.
Work on `CC(C)N1CCc2cc(C(=O)Nc3cccc(-c4cccc(NC(=O)c5cc6c(cn5)CN(CCC57CCC(C(=O)O)(CC5)C7)CC6)c4Cl)c3Cl)ncc2C1` [Example 67, 4-(2-(6-((2,2′-dichloro-3′-(7-isopropyl-5,6,7,8-tetrahydro-2,7-naphthyridine-3-carboxamido)-[1,1′-biphenyl]-3-yl)carbamoyl)-3,4-dihydro-2,7-naphthyridin-2(1H)-yl)ethyl)bicycio[2.2.1]heptane-1-carboxylic acid] yielded an EC50 [1] of 1660 nM.
Work on `Cn1c(C(=O)Nc2cccc(-c3cccc(NC(=O)c4cc5c(cn4)CN([C@H]4CC[C@@H](O)CC4)CC5)c3Cl)c2Cl)nc2c1CCN(CCC13CCC(C(=O)O)(CC1)C3)C2` [Example 12, 4-(2-(2-((2,2′-dichloro-3′-(7-((1S,4S)-4-hydroxycyclohexyl)-5,6,7,8-tetrahydro-2,7-naphthyridine-3-carboxamido)-[1,1′-biphenyl]-3-yl)carbamoyl)-1-methyl-1,4,6,7-tetrahydro-5H-imidazo[4,5-c]pyridin-5-yl)ethyl)bicyclo[2.2.1]heptane-1-carboxylic acid] yielded an EC50 [1] of 114 nM.
Compound `CCN1CCc2cc(C(=O)Nc3cccc(-c4cccc(NC(=O)c5nc6c(n5C)CCN(CCC57CCC(C(=O)O)(CC5)C7)C6)c4Cl)c3Cl)ncc2C1` [Example 3, 4-(2-(2-((2,2′-dichloro-3′-(7-ethyl-5,6,7,8-tetrahydro-2,7-naphthyridine-3-carboxamido)-[1,1′-biphenyl]-3-yl)carbamoyl)-1-methyl-1,4,6,7-tetrahydro-5H-imidazo[4,5-c]pyridin-5-yl)ethyl)bicyclo[2.2.1] heptane-1-carboxylic acid] has an EC50 [1] of 47.6 nM and an IC50 [2] of 0.174 nM.
`CCOC(=O)[C@@H](CO)NCc1cnc2c(Nc3cccc(-c4cccc(/C=C(\F)c5cc6c(cn5)CN(C[C@@H](C)O)CC6)c4Cl)c3Cl)nccc2c1` [Example 72, ethyl ((8-((2,2′-dichloro-3′-((Z)-2-fluoro-2-(7-((R)-2-hydroxypropyl)-5,6,7,8-tetrahydro-2,7-naphthyridin-3-yl)vinyl)-[1,1′-biphenyl]-3-yl)amino)-1,7-naphthyridin-3-yl)methyl)-D-serinate] showed an EC50 [1] of 1430 nM.

Reference: US12552811B2, “Immunosuppressant, and preparation method therefor and use thereof” (Abbisko Therapeutics Co., Ltd., priority 2020, dated 2026)
